Measurements from PMC5908784, “Extracellular loops 2 and 3 of the calcitonin receptor selectively modify agonist binding and efficacy” (Biochemical Pharmacology, 2018).
Changes are numbered by the printed parent chain. Where a SMILES comes first, the peptide text is derived from it. Bridges are numbered along the chain shown (N, C = ends). Where no end group is shown, it is not given here.

Tests used:
hCTR M367A = biological target: T1, hCTR M367A (Homo sapiens, UniProt P30988, M367A); experiment: Homologous whole cell competition binding; details: homologous competition of 125I-sCT(8-32), whole cells, mean ± S.E.M., SEM
T1 construct: c-Myc (N); expressed in transfected cells
T1 sequence (P30988 25-474 M367A): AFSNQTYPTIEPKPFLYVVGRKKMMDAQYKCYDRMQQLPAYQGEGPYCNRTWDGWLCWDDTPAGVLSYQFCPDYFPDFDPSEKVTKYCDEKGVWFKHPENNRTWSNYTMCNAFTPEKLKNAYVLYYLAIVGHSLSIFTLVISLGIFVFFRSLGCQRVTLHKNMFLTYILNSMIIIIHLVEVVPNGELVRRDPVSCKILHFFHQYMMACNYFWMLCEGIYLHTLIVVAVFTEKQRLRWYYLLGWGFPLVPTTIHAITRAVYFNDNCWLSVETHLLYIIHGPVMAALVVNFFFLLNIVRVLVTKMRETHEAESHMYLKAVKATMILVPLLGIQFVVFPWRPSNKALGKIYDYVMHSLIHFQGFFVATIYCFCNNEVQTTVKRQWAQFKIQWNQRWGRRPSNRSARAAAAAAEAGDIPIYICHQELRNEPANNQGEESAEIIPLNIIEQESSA
Experimental: (§1) Homologous radioligand competition was performed on 2.5 × 10^4 cells/well seeded into 96-well trays and cultured overnight. Cells were incubated overnight at 4 °C with two concentrations of ^125I-sCT(8-32) (between 25 and 100 pM; specific activity, 2000 Ci/mmol^9) and serial dilutions of non-iodinated sCT(8-32). Non-bound ligand was removed and bound ligand activity was measured using a γ counter (Wallac Wizard 1470 Gamma Counter, Perkin Elmer, 80% counter efficiency). Values were normalized against non-specific binding (0%) defined by the presence of 1 μM of unlabelled sCT(8-32), and total ligand bound in absence of competing sCT(8-32) (100%).
(§2) IC50 and Bmax values were estimated from competitive inhibition of ^125I-sCT(8-32) binding using a 3-parameter logistic equation (log(inhibitor versus response)) in Prism (v7; Graphpad). Data were corrected for radioligand occupancy using the Cheng-Prusoff equation in Prism; as such data are reported as pKi. Emax and EC50 were estimated from concentration-response curves using with a 3-parameter logistic equation in Prism (v7). These values are a composite of functional affinity, efficacy and stimulus response coupling. The Black and Leff operational model of agonism was applied to separate effects on pathway-specific efficacy (τ) from those that modify ligand functional affinity (pKA). Derived τ values were normalized to experimentally determined levels of cell surface expression to provide a measure of efficacy (τc) that is independent of affinity and altered cell surface receptor expression. pKi, pKA and log τc values for mutant receptors were statistically compared to those of the WT receptor using a one-way analysis of variance (ANOVA) and Dunnett’s post-test. Significance was accepted at P < 0.05.

hCTR I279A = biological target: T2, hCTR I279A (Homo sapiens, UniProt P30988, I279A); experiment: Homologous whole cell competition binding; details: homologous competition of 125I-sCT(8-32), whole cells, mean ± S.E.M., SEM
T2 construct: expressed in transfected cells
T2 sequence (P30988 25-474 I279A): T1 sequence (P30988 25-474 M367A) with I255A, A343M
Experimental: as §1, §2

hCTR L368A = biological target: T3, hCTR L368A (Homo sapiens, UniProt P30988, L368A); experiment: Homologous whole cell competition binding; details: homologous competition of 125I-sCT(8-32), whole cells, mean ± S.E.M., SEM
T3 construct: c-Myc (N); expressed in transfected cells
T3 sequence (P30988 25-474 L368A): T1 sequence (P30988 25-474 M367A) with A343M, L344A
Experimental: as §1, §2

hCTR P363A = biological target: T4, hCTR P363A (Homo sapiens, UniProt P30988, P363A); experiment: IP1 accumulation; type: cell-based; details: mean ± S.E.M.; for Emax: IP1 maximal response, SEM
T4 construct: expressed in transfected cells
T4 sequence (P30988 25-474 P363A): T1 sequence (P30988 25-474 M367A) with P339A, A343M
In short: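 Ligand-induced IP1 (60 min, LiCl) measured by HTRF; normalized to 100 μM ATP response.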

VLGKLSQELHKLQTYPRTNTGSGTP-NH2 [sCT(8-32)]
Ki (hCTR M367A): 0.295 nM
Ki (hCTR I279A): 0.191 nM
Ki (hCTR L368A): 0.209 nM

CSCC[C@H](NC(=O)CNC(=O)[C@H](CO)NC(=O)[C@H](Cc1ccccc1)NC(=O)[C@H](CCCNC(=N)N)NC(=O)[C@H](Cc1c[nH]cn1)NC(=O)[C@H](Cc1ccccc1)NC(=O)[C@H](CC(N)=O)NC(=O)[C@H](CC(N)=O)NC(=O)[C@H](CC(C)C)NC(=O)[C@H](CC(N)=O)NC(=O)[C@H](CCCNC(=N)N)NC(=O)[C@H](Cc1c[nH]c2ccccc12)NC(=O)[C@H](Cc1ccc(O)cc1)NC(=O)[C@H](C)NC(=O)[C@H](CO)NC(=O)[C@H](CC(C)C)NC(=O)[C@@H](NC(=O)[C@@H]1CSSC[C@H](N)C(=O)N[C@@H](CO)C(=O)N[C@@H](CC(N)=O)C(=O)N[C@@H](CC(C)C)C(=O)N[C@@H](CO)C(=O)N[C@@H]([C@@H](C)O)C(=O)N1)C(C)C)C(=O)NCC(=O)N[C@@H](Cc1ccccc1)C(=O)NCC(=O)N1CCC[C@H]1C(=O)N[C@@H](CCC(=O)O)C(=O)N[C@H](C(=O)N1CCC[C@H]1C(N)=O)[C@@H](C)O [pCT] (H-CSNLSTCVLSAYWRNLNNFHRFSGMGFGPETP-NH2; disulfide 1-7)
EC50 (hCTR P363A; IP1, CV1-FlpIn cells, 60 min, LiCl): 6.17 nM
Emax (hCTR P363A): 73 ± 10%

CC(C)C[C@H](NC(=O)[C@H](CCCCN)NC(=O)CNC(=O)[C@H](CC(C)C)NC(=O)[C@@H](NC(=O)[C@@H]1CSSC[C@H](N)C(=O)N[C@@H](CO)C(=O)N[C@@H](CC(N)=O)C(=O)N[C@@H](CC(C)C)C(=O)N[C@@H](CO)C(=O)N[C@@H]([C@@H](C)O)C(=O)N1)C(C)C)C(=O)N[C@@H](CO)C(=O)N[C@@H](CCC(N)=O)C(=O)N[C@@H](CCC(=O)O)C(=O)N[C@@H](CC(C)C)C(=O)N[C@@H](Cc1c[nH]cn1)C(=O)N[C@@H](CCCCN)C(=O)N[C@@H](CC(C)C)C(=O)N[C@@H](CCC(N)=O)C(=O)N[C@H](C(=O)N[C@@H](Cc1ccc(O)cc1)C(=O)N1CCC[C@H]1C(=O)N[C@@H](CCCNC(=N)N)C(=O)N[C@H](C(=O)N[C@@H](CC(N)=O)C(=O)N[C@H](C(=O)NCC(=O)N[C@@H](CO)C(=O)NCC(=O)N[C@H](C(=O)N1CCC[C@H]1C(N)=O)[C@@H](C)O)[C@@H](C)O)[C@@H](C)O)[C@@H](C)O [sCT]
Emax (hCTR P363A): 86 ± 9%
